Converted amounts (≈) assume the structure as drawn. Like-named read-outs stand apart in the source and are kept apart here.
Experiments:
Assay type in all cases: cell-based
Huh-7 (Liver) = test: SRB anti-proliferation assay, Huh-7; conditions: Homo sapiens; for IC50: Huh-7, 48 hours; for inhibition at 0.3 µg/mL: Huh-7, in 0.3 μg/ml
Protocol: (§1) Various cell lines (5×10^3 cells/well) were sub-cultured onto 96-well plates and starved with serum-free medium for 48 h. Then cells were incubated in medium with 10% FBS in the absence or presence of various concentrations of AC006, AC007, AC009, and AC012 (0.1, 0.3, 1, 3, 10, and 30 μg/ml) for 48 hours. After treatment, the medium was discarded firstly. […]. In order to fix the adherent cells, 100 μl of trichloroacetic acid (10% (w/v)) were adding to each well and incubating at 4° C. for 1 hour. Then the plates were then washed with deionized water and dried in the air. Each well were added with 50 μl of Sulforhodamine B (SRB) solution (0.4% w/v in 1% acetic acid) and incubated for 5 min at room temperature. To remove unbound SRB in the plates, the plates were washed with 1% acetic acid and then air dried. The residual bound SRB was solubilized with 100 μl of 10 mM Tris base buffer (pH 10.5), and then read using a micro titer plate reader at 495 nm.

RKO (Colorectal) = test: SRB anti-proliferation assay, RKO; conditions: for inhibition at 10 µg/mL: in 10 μg/ml
Protocol: as §1

A549 (Lung) = test: SRB anti-proliferation assay, A549; conditions: Homo sapiens; for IC50: A549, 48 hours; for inhibition at 10 µg/mL: A549, in 10 μg/ml
Protocol: as §1

HCT-116 (Colon rectal) = test: SRB anti-proliferation assay, HCT-116; conditions: Homo sapiens; for IC50: HCT-116, 48 hours; for inhibition at 0.3 µg/mL: HCT-116, in 0.3 μg/ml
Protocol: as §1

DLD-1 (Colorectal) = test: SRB anti-proliferation assay, DLD-1; conditions: for inhibition at 10 µg/mL: DLD-1, in 10 μg/ml
Protocol: as §1

SW-480 (Colon rectal) = test: SRB anti-proliferation assay, SW-480; conditions: for IC50: SW-480, 48 hours; for inhibition at 10 µg/mL: SW480, SW-480, in 10 μg/ml
Protocol: as §1

4T-1 (Breast) = test: SRB anti-proliferation assay, 4T-1; conditions: 4T-1, 48 hours
Protocol: as §1

B16F10 (Melanoma) = test: SRB anti-proliferation assay, B16F10; conditions: Mus musculus, B16-F10; B16F10, 48 hours
Protocol: as §1

LN-229 (Brain, Glioma) = test: SRB anti-proliferation assay, LN-229; conditions: Homo sapiens; for IC50: LN-229, 48 hours
Protocol: as §1

PC3 (Prostate) = test: SRB anti-proliferation assay, PC3; conditions: PC3, 48 hours
Protocol: as §1

U251 (Brain, Glioma) = test: SRB anti-proliferation assay, U251; conditions: Homo sapiens, U-251; for IC50: U251, 48 hours
Protocol: as §1

Sk-Hep-1 (Liver) = test: SRB anti-proliferation assay, Sk-Hep-1; conditions: Homo sapiens, SK-HEP1; Sk-Hep-1, 48 hours
Protocol: as §1

U87 (Brain, Glioma) = test: SRB anti-proliferation assay, U87; conditions: for IC50: U87, 48 hours
Protocol: as §1

COLO205 (Colon) = test: SRB anti-proliferation assay, COLO205; conditions: Homo sapiens, COLO 205; COLO205, 48 hours
Protocol: as §1

NST (Colon) = test: SRB anti-proliferation assay, NST
Protocol: as §1

HT-29 (Colon) = test: SRB anti-proliferation assay, HT-29; conditions: Homo sapiens; HT-29, 48 hours
Protocol: as §1

[1] = test system: Endothelial progenitor cell (EPCs); test: SRB assay, EPC cell proliferation; conditions: 48 h, read-out: inhibitory concentrations of 50% EPC cell proliferation (IC50)
Protocol: as §1, with “Endothelial progenitor” for “Various”, “(EPCs, 5×10^3” for “lines (5×10^3”, “of” for “of AC006, AC007, AC009, and”, “10” for “10,”, “h.” for “hours. After treatment, the medium was discarded firstly.”

EPCs in presence of VEGF = test: Matrigel capillary tube formation assay; conditions: 1 μg/ml, EPC, VEGF 20 ng/ml, 16 hr; read-out: inhibit tube formation
Protocol: Matrigel was added to 15-well-plates (ibidi) in a total volume of 10 μl in each well. Plates were stood at 37° C. for 30 min to form a gel layer. After gel formation, EPCs (5×10^3 cells) treated with or without AC012 (0.1, 0.3, 1 μg/ml) in presence of VEGF (20 ng/ml) were applied to each well, and plates were incubated for at 37° C. 16 hr with 5% CO2. After incubation, the inverted contrast phase microscope (Nikon, Japan) was used for subject observation.

[2] = Homo sapiens, DLD-1, 48 h, read-out: IC50
[3] = Homo sapiens, SW480, 48 h, read-out: IC50

Row | SMILES | IC50 (Huh-7 (Liver)) [µg/mL] | inhibition at 0.3 µg/mL (Huh-7 (Liver)) [%] | IC50 (RKO (Colorectal); 48 h, read-out: IC50) [µg/mL] | inhibition at 10 µg/mL (RKO (Colorectal)) [%] | IC50 (A549 (Lung)) [µg/mL] | IC50 (HCT-116 (Colon rectal)) [µg/mL] | inhibition at 0.3 µg/mL (HCT-116 (Colon rectal)) [%] | IC50 (DLD-1 (Colorectal); [2]) [µg/mL] | inhibition at 10 µg/mL (DLD-1 (Colorectal); Homo sapiens) [%] | IC50 (SW-480 (Colon rectal); [3]) [µg/mL] | inhibition at 10 µg/mL (SW-480 (Colon rectal); Homo sapiens) [%] | IC50 (B16F10 (Melanoma)) [µg/mL] | IC50 (LN-229 (Brain, Glioma)) [µg/mL] | IC50 (PC3 (Prostate)) [µg/mL] | inhibition at 10 µg/mL (A549 (Lung)) [%] | also measured
1 | COC1=C(OC)[C@H](O)[C@H](C/C=C(\C)CC/C=C(\C)C/C=C/C(C)(C)O)[C@@H](C)C1=O [AC007-H1] | < 0.3 | 85.2 | > 10 | 33 | 1.69 (≈ 4.16 µM) | < 0.3 | 59.5 | > 10 | 16.1 | > 10 | 18.2 |  |  |  |  | 
2 | COC1=C(OC)[C@H](O)[C@H](C/C=C(\C)CC/C=C(\C)CCCC(C)CO)[C@@H](C)C1=O (some centres unmarked) [AC012-H1] | < 0.3 | 91.2 | > 10 | 17.5 | 6.4 (≈ 15.7 µM) | < 0.3 | 52.7 | > 10 | 11.8 | > 10 | 14.8 |  |  |  |  | 
3 | COC1=C(OC)[C@H](OC(C)=O)[C@H](C/C=C(\C)CC/C=C(\C)C/C=C/C(C)(C)O)[C@@H](C)C1=O [AC007] | 0.88 (≈ 1.96 µM) |  | 17.6 (≈ 39.2 µM) | 29.5 | 3.57 (≈ 7.96 µM) | 0.93 (≈ 2.07 µM) |  | 19.7 (≈ 44 µM) | 25.6 | > 10 | 21.5 | 23.4 (≈ 52.3 µM) | > 25 | 22.1 (≈ 49.2 µM) |  | IC50 (RKO (Colorectal); 48 hours): > 10 µg/mL; IC50 (4T-1 (Breast)): 24.8 µg/mL (≈ 55.3 µM); inhibition at 25 µg/mL (LN-229 (Brain, Glioma); LN-229, in 25 μg/ml): 19.1%; IC50 (DLD-1 (Colorectal); DLD-1, 48 hours): > 10 µg/mL
4 | COC1=C(OC)[C@H](O)[C@H](C/C=C(\C)CC/C=C(\C)CC/C=C(\C)CO)[C@@H](C)C1=O [AC009-H1] | < 0.3 | 90.6 | > 10 | 8.79 | > 10 | < 0.3 | 54.4 | > 10 | 11 | > 10 | 4.01 |  |  |  | 40.8 | 
5 | COC1=C(OC)[C@H](OC(C)=O)[C@H](C/C=C(\C)CC/C=C(\C)C/C=C/C(C)(C)O)CC1=O [AC011] |  |  | > 10 | 24.1 |  | 2.43 (≈ 5.59 µM) |  | > 10 | 7.57 | > 10 | 31.6 |  |  |  |  | 
6 | COC1=C(OC)[C@H](OC(C)=O)[C@H](C/C=C(\C)CC/C=C(\C)C[C@H](O)C=C(C)C)[C@@H](C)C1=O [AC006] | 0.72 (≈ 1.6 µM) |  |  |  | > 10 |  |  |  |  |  |  | 28.7 (≈ 64 µM) | > 30 | 19.7 (≈ 43.9 µM) | 12.2 | IC50 (U251 (Brain, Glioma)): > 30 µg/mL; inhibition at 30 µg/mL (U251 (Brain, Glioma); U251, in 30 μg/ml): 22.6%; inhibition at 30 µg/mL (LN-229 (Brain, Glioma); LN-229, in 30 μg/ml): 22.6%; IC50 (Sk-Hep-1 (Liver)): 26.8 µg/mL (≈ 59.7 µM); IC50 (U87 (Brain, Glioma)): > 30 µg/mL; inhibition at 30 µg/mL (U87 (Brain, Glioma); U87, in 30 μg/ml): 11.3%
7 | COC1=C(OC)[C@H](OC(C)=O)[C@H](C/C=C(\C)CC/C=C(\C)CC/C=C(\C)CO)[C@@H](C)C1=O [AC009] | < 0.3 | 88.2 | 15.9 (≈ 35.5 µM) | 33.2 | 8.08 (≈ 18 µM) | 2.56 (≈ 5.71 µM) |  | 14.6 (≈ 32.6 µM) | 8.75 | 18.6 (≈ 41.4 µM) | 7.98 | 22.4 (≈ 50 µM) | 19.5 (≈ 43.5 µM) | 15 (≈ 33.4 µM) |  | IC50 (RKO (Colorectal); 48 hours): > 10 µg/mL; IC50 (COLO205 (Colon)): 2.45 µg/mL (≈ 5.46 µM); IC50 (NST (Colon); 48 hours): > 25 µg/mL; inhibition at 25 µg/mL (NST (Colon); in 25 μg/ml): 44.4%; IC50 (DLD-1 (Colorectal); DLD-1, 48 hours): > 10 µg/mL; IC50 (SW-480 (Colon rectal)): > 10 µg/mL; IC50 (HT-29 (Colon)): 33.2 µg/mL (≈ 74.1 µM)
8 | COC1C(=O)C(C)[C@@H](C/C=C(\C)CC/C=C(\C)CCCC(C)CO)[C@@H](O)C1(OC)OC (some centres unmarked) [AC012-H2] |  |  | > 10 | 31.6 |  | > 10 |  | > 10 | 8.31 | > 10 | 5.66 |  |  |  |  | inhibition at 10 µg/mL (HCT-116 (Colon rectal); HCT-116, in 10 μg/ml): 40.3%
9 | COC1=C(OC)[C@H](OC(C)=O)[C@H](C/C=C(\C)CC/C=C(\C)CCCC(C)CO)[C@@H](C)C1=O (some centres unmarked) [AC012] | < 0.3 | 78.9 | > 10 | 34.7 | > 10 | 2.29 (≈ 5.08 µM) |  | > 10 | 20.2 | > 10 | 9.05 | 9.16 (≈ 20.3 µM) | 19.4 (≈ 43.2 µM) | 11.4 (≈ 25.2 µM) | 49.5 | IC50 [1]: 29 µg/mL (≈ 64.4 µM); inhibition at 1 µg/mL (EPCs in presence of VEGF): 31.9%; IC50 (U251 (Brain, Glioma)): 22.7 µg/mL (≈ 50.4 µM); IC50 (Sk-Hep-1 (Liver)): 8.27 µg/mL (≈ 18.4 µM); IC50 (U87 (Brain, Glioma)): 18.6 µg/mL (≈ 41.3 µM)
